Like-named read-outs stand apart in the source and are kept apart here.
What was measured:
[1] = Pharmacokinetics in cynomolgus monkeys, single intravenous injection; format: in vivo; details: male, cynomolgus monkey, plasma, 1 mg/kg single intravenous injection
Method: Objective: To Study Pharmacokinetics of the Compound in Cynomolgus Monkeys
Experimental material: Cynomolgus Monkeys (male, 2.5-4 kg, greater than or equal to 2 years, Jingang Biotech)
Pharmacokinetic profiles of the compound were tested by intravenous administration in monkeys according to the standard protocol. In the study, the candidate compound was prepared as a clear solution, and was administered to cynomolgus monkeys at 1 mg/kg by single intravenous injection. A vehicle for intravenous injection was a 10% hydroxypropyl ß-cyclodextrin aqueous solution. Whole blood samples were collected at 0.033, 0.083, 0.25, 0.5, 1, 2, 4, 8, 12, and 24 hours, respectively, centrifuged at 3000 r for 10 min, and separated from supernatant to obtain plasma samples. 20 μL of plasma samples were mixed with 400 μL of acetonitrile precipitated proteins containing an internal standard, and 2 μL of the supernatant was injected by centrifugation. Plasma concentrations were quantified by LC-MS/MS analysis, and pharmacokinetic parameters, such as clearance, half-life, and area under the concentration-time curve, etc. were calculated.

[2] = Corneal and plasma drug concentration after eye drops in rats; format: in vivo
Method: Objective: To Study the Ratio of Corneal to Plasma Drug Concentration After Eye Drops in Rats
Experimental Materials: Male SD Rats, 200-300 g, 7-9 weeks old, Shanghai Lingchang
Experimental procedures: The candidate compound was prepared as a clear solution, and administered to SD rats by eye drops. The vehicle for eye drops was 10% hydroxypropyl β-cyclodextrin aqueous solution, and the drug concentration in the eye drops was 5 mg/mL. Corneal and whole blood samples were collected at 1 and 4 hours, respectively. The corneal samples was homogenized in 15 mM phosphate buffer (PBS): MeoH (2:1, v: v) buffer, the whole blood samples were centrifuged at 3000 r for 10 min, and the supernatant plasma samples were separated. 20 μL of the plasma samples and homogenate samples were mixed with 400 μL of acetonitrile precipitated proteins containing an internal standard, respectively, and 2 μL of the supernatant was injected by centrifugation. The plasma concentrations were quantified by LC-MS/MS analysis; the drug concentrations in the cornea and plasma were measured respectively according to different time points, and the ratio of corneal/plasma concentrations was calculated.

Q: With `CC(C)(O)c1ccc(-c2cnc(C(C)(C)O)c(N)c2)cc1N` [Compound 3] as the molecule, how does the clearance [1] read?
A: 6.2 mL/min/kg

Q: What about the AUC ([1]; read-out: Area under the concentration-time curve AUC) of the same molecule?
A: 9.16 µM·h

Q: And the half-life ([1]; read-out: Half-time T1/2 (converted))?
A: 3.81 h

Q: And the “entry into the cornea by eye drops” value ([2]; SD rats, eye drops, result in words)?
A: could enter the cornea by eye drops

Q: What about the concentration at 1 h ([2]; male, Sprague-Dawley (SD), rat, cornea, topical, eye drops 5 mg/mL, 1 h, read-out: Corneal Concentration) of the same molecule?
A: 1800 nM

Q: What about the concentration at 4 h ([2]; male, Sprague-Dawley (SD), rat, cornea, topical, eye drops 5 mg/mL, 4 h, read-out: Corneal Concentration) of the same molecule?
A: 581 nM

Q: What about the Kp ([2]; male, Sprague-Dawley (SD), rat, cornea/plasma, topical, 5 mg/mL, eye drops, statement in the conclusion, no time point, read-out: ratio of cornea/plasma concentrations) of the same molecule?
A: > 10

Q: And the Kp at 1 h ([2]; male, Sprague-Dawley (SD), rat, cornea/plasma, topical, eye drops 5 mg/mL, 1 h, read-out: Corneal Concentration/Plasma Concentration C/P ratio)?
A: 14.3

Q: What about the Kp at 4 h ([2]; male, Sprague-Dawley (SD), rat, cornea/plasma, topical, eye drops 5 mg/mL, 4 h, read-out: Corneal Concentration/Plasma Concentration C/P ratio) of the same molecule?
A: 16.6

Q: What about the concentration at 1 h ([2]; male, Sprague-Dawley (SD), rat, plasma, topical, eye drops 5 mg/mL, 1 h, read-out: Plasma Concentration) of the same molecule?
A: 162 nM

Q: What about the concentration at 4 h ([2]; male, Sprague-Dawley (SD), rat, plasma, topical, eye drops 5 mg/mL, 4 h, read-out: Plasma Concentration) of the same molecule?
A: 43.8 nM

— patent US12479823B2, “Compound for use in retinal diseases” (ZHUHAI UNITED LABORATORIES CO., LTD., priority 2018, dated 2025)
